Results: patent US12109204B2, “Methods for treating muscular dystrophies” (The Regents of the University of California, priority 2018, dated 2024)

Legend:
Format in all cases: cell-based, murine
SSPN, sarcospan [1] = assay: SSPN gene expression by qPCR in C2C12 wild-type myotubes; details: 1-10 μM, 48 hours, normalized to β-actin (FIG. 10c)
Description: (§1) RNA from myotubes treated for 48 hours was extracted from cells using Trizol-based (Thermo Fisher Scientific) phase separation. RNA concentrations were determined using a NanoDrop 1000 (Thermo Fisher Scientific) and 750 ng of RNA in a 20 μl reaction was reverse transcribed using iScript cDNA synthesis (Bio-Rad) with the following cycling conditions: 25° C. for 5 minutes, 42° C. for 30 minutes, 85° C. for 5 minutes. For quantitative PCR, SsoFast EvaGreen Supermix (Bio-Rad), 400 nM of each optimized forward and reverse primer (for primer descriptions see Table 1), and cDNA corresponding to 37.5 ng RNA were used to amplify cDNA measured by Applied Biosystems 7300 (Thermo Fisher Scientific) with the following reaction conditions: 55° C. for 2 minutes, 95° C. for 2 minutes, 40 cycles of 95° C. for 10 seconds and 62° C. for 30 seconds, and dissociation stage. Each sample was run in triplicate. Data was analyzed using the ddCT method and normalized to reference gene, GAPDH or β-actin, with vehicle-treated samples serving as the calibrator (relative expression of vehicle control=1). C2C12 cells (American Type Culture Collection) were grown at 37° C. with 5% CO2 in growth media containing DMEM (Gibco) with 20% FBS (Sigma-Aldrich). Upon reaching confluency, the media was replaced with differentiation media containing DMEM with 2% horse serum (Sigma-Aldrich). Conditionally immortalized H2K mdx myoblast cells with a nonsense mutation in exon 23 of dystrophin were a gift from Terrance Partridge, Ph.D. (Children's National Medical Center, Washington, D.C.). Cells were allowed to proliferate on 0.01% gelatin (Sigma-Aldrich) coated plates at 33° C. with 5% CO2 with growth media containing DMEM, 20% HI-FBS (Invitrogen), 2% L-glutamine (Sigma-Aldrich), 2% chicken embryo extract (Accurate Chemical), 1% penicillin-streptomycin (Sigma-Aldrich), and 20U/ml of fresh interferon gamma (Gibco). For differentiation, H2K mdx myoblasts were seeded on plates coated with 0.1 mg/ml matrigel (Corning) diluted in DMEM and grown in proliferation conditions. […]

SSPN, sarcospan [2] = assay: SSPN gene expression by qPCR in mdx myotubes; details: for SSPN gene expression over vehicle: 1-10 μM, 48 hours, normalized to β-actin (FIG. 10d)
Description: as §1

SSPN protein = SSPN protein immunoblot in mdx myotubes; details: mdx cells, 48 hours, immunoblot normalized to GAPDH (FIG. 10f)
Description: C2C12 cells (American Type Culture Collection) were grown at 37° C. with 5% CO2 in growth media containing DMEM (Gibco) with 20% FBS (Sigma-Aldrich). Upon reaching confluency, the media was replaced with differentiation media containing DMEM with 2% horse serum (Sigma-Aldrich). Conditionally immortalized H2K mdx myoblast cells with a nonsense mutation in exon 23 of dystrophin were a gift from Terrance Partridge, Ph.D. (Children's National Medical Center, Washington, D.C.). Cells were allowed to proliferate on 0.01% gelatin (Sigma-Aldrich) coated plates at 33° C. with 5% CO2 with growth media containing DMEM, 20% HI-FBS (Invitrogen), 2% L-glutamine (Sigma-Aldrich), 2% chicken embryo extract (Accurate Chemical), 1% penicillin-streptomycin (Sigma-Aldrich), and 20U/ml of fresh interferon gamma (Gibco). […] The supernatant was collected, quantified for protein concentration using the DC protein assay (Bio-Rad), and normalized to 2 mg/ml in water and Laemmli sample buffer with a final concentration of 10% glycerol (Sigma-Aldrich), 5% beta-mercaptoethanol (Sigma-Aldrich), 3% sodium dodecyl sulfate (Sigma-Aldrich), and 0.05% bromophenol blue (Sigma-Aldrich). […] Autoradiography films were developed using a SRX-101A tabletop processor (Konica Minolta), scanned to a digital file, and analyzed by densitometry of bands using ImageJ version 1.51s. […]

In the case of CCOC(=O)C1=C(C)NC(C)=C(C(=O)OC)C1c1cccc(Cl)c1Cl (stereo not shown) [Felodipine, 5-O-ethyl 3-O-methyl 4-(2,3-dichlorophenyl)-2,6-dimethyl-1,4-dihydropyridine-3,5-dicarboxylate], the “SSPN gene expression over vehicle” value (SSPN, sarcospan [1]) was “increases sarcospan gene expression”, the “SSPN gene expression over vehicle” value (SSPN, sarcospan [1]; listed as felodipine) was “increased over vehicle” and the “SSPN gene expression over vehicle” value (SSPN, sarcospan [2]) was “increases sarcospan gene expression”. For the same molecule, the “SSPN gene expression over vehicle” value (SSPN, sarcospan [2]; listed as felodipine) was “increase in SSPN gene expression”, the “SSPN gene expression relative to vehicle” value (SSPN, sarcospan [2]; 48h, normalized to GAPDH, n=2 (FIG. 11d)) was “only increased sarcospan levels” and the SSPN protein levels (SSPN protein) was “increases sarcospan protein levels”. For the same molecule, the SSPN protein levels (SSPN protein; listed as felodipine) was “increased SSPN protein levels”.
